Results taken from the RepoRT retention time repository (doi:10.1016/j.jhazmat.2019.121712).

Assay: Thermo Scientific Acclaim RSLC 120 C18, 100 × 2.1 mm, 2.2 µm, 30 °C; A: 90% water + 10% methanol + 0.01% formic acid + 5 mM ammonium formate; B: methanol + 0.01% formic acid + 5 mM ammonium formate; gradient (min/%B) 0.1/1 3/39 14/99.9 16/99.9
Settings: stereoisomer not certain

Row | Compound | LC retention time
1 | CCCSC(=O)N(CCC)CCC | 11.5 min
2 | CNC1C(OC2C(OC3C(O)C(O)C(N=C(N)N)C(O)C3N=C(N)N)OC(C)C2(O)CO)OC(CO)C(O)C1O (centres undefined) | 1.26 min
3 | CNC(=O)Oc1cccc2ccccc12 | 7.46 min
4 | O=P(Oc1ccccc1)(Oc1ccccc1)Oc1ccccc1 | 11 min
5 | Cc1cc(C)cc(C(=O)N(NC(=O)c2ccc3c(c2C)CCCO3)C(C)(C)C)c1 | 9.93 min
6 | c1ccc(CN2CCNCC2)cc1 | 4.23 min
7 | CNC(C)Cc1ccccc1 (centres undefined) | 4.21 min
8 | COc1ccc2[nH]cc(CCNC(C)=O)c2c1 | 5.36 min
9 | CCCc1nn(C)c2c(=O)[nH]c(-c3cc(S(=O)(=O)N4CC(C)NC(C)C4)ccc3OCC)nc12 (centres undefined) | 7.6 min
10 | CCOC(=O)C1(c2ccccc2)CCN(CCC(C#N)(c2ccccc2)c2ccccc2)CC1 | 10.4 min
11 | CNCC1CCCCC1(O)c1cccc(OC)c1 (centres undefined) | 5.3 min
12 | CN(C)C(=O)SCCCCOc1ccccc1 | 10.7 min
13 | COP(=O)(OC)Oc1ccc([N+](=O)[O-])cc1 | 6.36 min
14 | O=[N+]([O-])c1cncn1CCN1CCOCC1 | 4.09 min
15 | CNC1C(C)OC(OC2C(C)OC(OC3C(C)=CCC4CC(CC5(C=CC(C)C(C(C)C)O5)O4)OC(=O)C4C=C(C)C(O)C5OCC(=CC=CC3C)C45O)CC2OC)CC1OC (centres undefined) | 12 min
16 | CN(C)c1ccc(N=Nc2ccccc2)cc1 | 12.4 min
17 | CCCCCn1cc(C(=O)c2ccc(C)c3ccccc23)c2ccccc21 | 12.9 min
18 | NCC(O)COc1ccccc1C(=O)CCc1ccccc1.O=C(O)C(=O)O (centres undefined) | 7.09 min
19 | CCNCC(=O)Nc1c(C)cccc1C | 4.33 min
20 | Nc1ccc([N+](=O)[O-])cc1C(=O)c1ccccc1 | 8.99 min
21 | CNC(=O)ON=CC(C)(C)S(C)(=O)=O | 3.75 min
22 | O=C1NC(=O)C2CC=CCC12 (centres undefined) | 4.37 min

Row | Compound | LC retention time
23 | CN1CC(=O)N2C(Cc3c([nH]c4ccccc34)C2c2ccc3c(c2)OCO3)C1=O (centres undefined) | 8.26 min
24 | COc1cccc2c(C(=O)NC3C4(C)CCC(C4)C3(C)C)cn(CCN3CCOCC3)c12 (centres undefined) | 11.7 min
25 | COc1ccc2c(c1)N(CC(C)CN(C)C)c1ccccc1S2 (centres undefined) | 8.14 min
26 | O=C(O)CCCn1cc(C(=O)c2cccc3ccccc23)c2ccccc21 | 9.33 min
27 | CCCCc1c(C)nc(NCC)nc1OS(=O)(=O)N(C)C | 10.5 min
28 | CN(C)CCOC(=O)C(c1ccccc1)C1(O)CCCC1 (centres undefined) | 6.16 min
29 | COc1cc(C=C2CCCC(=Cc3ccc(O)c(OC)c3)C2=O)ccc1O | 9.59 min
30 | CCCCCn1cc(C(=O)c2ccccc2OC)c2ccccc21 | 11.2 min
31 | CCCCn1cc(C(=O)c2c(C)ccc3ccccc23)c2ccccc21 | 12.3 min
32 | CCCc1nn(C)c2c(=O)[nH]c(-c3cc(C(C)=O)ccc3OCC)nc12 | 9.81 min
33 | COc1cc(SC(C)C)c(OC)cc1CCN | 6.69 min
34 | CN1CCCCC1CCN1c2ccccc2Sc2ccc(S(C)=O)cc21 (centres undefined) | 6.74 min
35 | COP(=S)(OC)Oc1ccc(C#N)cc1 | 8.27 min
36 | CC(C(=O)c1ccc2c(c1)OCO2)N(C)C (centres undefined) | 3.78 min
37 | C=CC=CCC1=C(C)C(OC(=O)C2C(C=C(C)C)C2(C)C)CC1=O (centres undefined) | 12.9 min
38 | CCN(CC)CC(=O)Nc1c(C)cccc1C | 4.54 min
39 | CC(C)N1C(=O)c2ccccc2NS1(=O)=O | 5.22 min
40 | CCOS(=O)(=O)O | 1.58 min
41 | CCCCCn1cc(C(=O)Nc2cccc3ccccc23)c2ccccc21 | 11.7 min
42 | CCC1OC(=O)C(C)C(OC2CC(C)(OC)C(O)C(C)O2)C(C)C(OC2OC(C)CC(N(C)C)C2O)C(C)(OC)CC(C)C(=O)C(C)C(O)C1(C)O (centres undefined) | 9.18 min
43 | NNC(=O)c1ccncc1 | 2.18 min
44 | CCNc1nc(NC(C)C)nc(SC)n1 | 9.16 min
